Results: the supplement of paper PMC10307832

Tests used:
Test in all cases: relative viability (nuclei count vs DMSO), 5 days (fraction); higher = more cells survive
[1] = compound: C1COCCN1C2=NC(=NC3=C2OC4=C3C=CC=N4)C5=CC(=CC=C5)NC(=O)C6=CN=C(C=C6)N + C[C@]1(O)C[C@@H](c2nc(-c3ccc4ccc(-c5ccccc5)nc4c3)c3c(N)nccn32)C1 [Linsitinib] (partner 1 µM)
Outline: (§1)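 Dosing by pin tool came one day after lung cancer cell lines were seeded in 1536-well plates, using either one drug or a fixed anchor-drug dose plus five library-drug doses (not always all listed) in √10 steps. After 5 days, nuclei were counted on 4× images. Relative viability is treated-well nuclei count divided by vehicle-well nuclei count, and values are medians of duplicate plates.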

[2] = compound: C1COCCN1C2=NC(=NC3=C2OC4=C3C=CC=N4)C5=CC(=CC=C5)NC(=O)C6=CN=C(C=C6)N + O=C(c1cc(Cc2n[nH]c(=O)c3ccccc23)ccc1F)N1CCN(C(=O)C2CC2)CC1 [Olaparib] (partner 8 µM)
Outline: as §1

[3] = compound: CN1CCC(CNc2ccc3ncc(-c4cccc(OC(F)(F)F)c4)n3n2)CC1 [SGI-1776] + Cc1nc(NC(=O)N2CCC[C@H]2C(N)=O)sc1-c1ccnc(C(C)(C)C(F)(F)F)c1 [Alpelisib] (partner 2 µM)
Outline: as §1

[4] = compound: CN1CCC(CNc2ccc3ncc(-c4cccc(OC(F)(F)F)c4)n3n2)CC1 [SGI-1776] + Cc1nc(Nc2ncc(C(=O)Nc3c(C)cccc3Cl)s2)cc(N2CCN(CCO)CC2)n1 [Dasatinib] (partner 0.075 µM)
Outline: as §1

Cell Line RERF-LC-KJ has a relative viability ([1]; first compound 0.02 µM) of 0.958, a relative viability ([1]; first compound 0.06325 µM) of 0.961 and a relative viability ([1]; first compound 0.2 µM) of 0.898. It also gave a relative viability ([1]; first compound 0.6325 µM) of 0.863, a relative viability ([1]; first compound 2 µM) of 0.63 and a relative viability ([2]; first compound 0.02 µM) of 0.953. It also gave a relative viability ([2]; first compound 0.06325 µM) of 0.982, a relative viability ([2]; first compound 0.2 µM) of 0.866 and a relative viability ([2]; first compound 0.6325 µM) of 0.93. The relative viability ([2]; first compound 2 µM) was 0.554, the relative viability ([3]; first compound 0.08 µM) was 0.805 and the relative viability ([3]; first compound 0.8 µM) was 0.844. For the same cell line, the relative viability ([3]; first compound 2.53 µM) was 0.926, the relative viability ([3]; first compound 8 µM) was 0.666 and the relative viability ([4]; first compound 0.08 µM) was 0.803. For the same cell line, the relative viability ([4]; first compound 0.8 µM) was 0.688, the relative viability ([4]; first compound 2.53 µM) was 0.7 and the relative viability ([4]; first compound 8 µM) was 0.447.
LU99A was tested, and the relative viability ([1]; first compound 0.02 µM) was 0.517, the relative viability ([1]; first compound 0.06325 µM) was 0.583 and the relative viability ([1]; first compound 0.2 µM) was 0.435. The relative viability ([1]; first compound 0.6325 µM) was 0.353, the relative viability ([1]; first compound 2 µM) was 0.236 and the relative viability ([2]; first compound 0.02 µM) was 0.264. The relative viability ([2]; first compound 0.06325 µM) was 0.27, the relative viability ([2]; first compound 0.2 µM) was 0.226 and the relative viability ([2]; first compound 0.6325 µM) was 0.262. For the same cell line, the relative viability ([2]; first compound 2 µM) was 0.222, the relative viability ([3]; first compound 0.08 µM) was 0.614 and the relative viability ([3]; first compound 0.8 µM) was 0.525. It also gave a relative viability ([3]; first compound 2.53 µM) of 0.552, a relative viability ([3]; first compound 8 µM) of 0.406 and a relative viability ([4]; first compound 0.08 µM) of 0.727. For the same cell line, the relative viability ([4]; first compound 0.8 µM) was 0.56, the relative viability ([4]; first compound 2.53 µM) was 0.382 and the relative viability ([4]; first compound 8 µM) was 0.441.
PC-3 [JPC-3] showed a relative viability ([1]; first compound 0.02 µM) of 0.994, a relative viability ([1]; first compound 0.06325 µM) of 0.969 and a relative viability ([1]; first compound 0.2 µM) of 0.969. The relative viability ([1]; first compound 0.6325 µM) was 0.918, the relative viability ([1]; first compound 2 µM) was 0.908 and the relative viability ([2]; first compound 0.02 µM) was 1.19. It also gave a relative viability ([2]; first compound 0.06325 µM) of 1.19, a relative viability ([2]; first compound 0.6325 µM) of 1.17 and a relative viability ([2]; first compound 2 µM) of 0.709. The relative viability ([3]; first compound 0.08 µM) was 1.1, the relative viability ([3]; first compound 0.8 µM) was 0.946 and the relative viability ([3]; first compound 2.53 µM) was 1.06. For the same cell line, the relative viability ([3]; first compound 8 µM) was 0.971, the relative viability ([4]; first compound 0.08 µM) was 1.1 and the relative viability ([4]; first compound 0.8 µM) was 0.961. It also gave a relative viability ([4]; first compound 2.53 µM) of 0.977 and a relative viability ([4]; first compound 8 µM) of 0.857.
NCI-H2126 was tested, and the relative viability ([1]; first compound 0.02 µM) was 0.73, the relative viability ([1]; first compound 0.06325 µM) was 0.79 and the relative viability ([1]; first compound 0.2 µM) was 0.68. For the same cell line, the relative viability ([1]; first compound 0.6325 µM) was 0.581, the relative viability ([1]; first compound 2 µM) was 0.601 and the relative viability ([2]; first compound 0.02 µM) was 0.889. For the same cell line, the relative viability ([2]; first compound 0.06325 µM) was 0.962, the relative viability ([2]; first compound 0.2 µM) was 0.876 and the relative viability ([2]; first compound 0.6325 µM) was 0.865. The relative viability ([2]; first compound 2 µM) was 0.532, the relative viability ([3]; first compound 0.08 µM) was 0.735 and the relative viability ([3]; first compound 0.8 µM) was 0.733. It also gave a relative viability ([3]; first compound 2.53 µM) of 0.751, a relative viability ([3]; first compound 8 µM) of 0.676 and a relative viability ([4]; first compound 0.08 µM) of 0.642. The relative viability ([4]; first compound 0.8 µM) was 0.635, the relative viability ([4]; first compound 2.53 µM) was 0.481 and the relative viability ([4]; first compound 8 µM) was 0.434.
For LXF-289, the relative viability ([1]; first compound 0.02 µM) was 1.02, the relative viability ([1]; first compound 0.06325 µM) was 1.07 and the relative viability ([1]; first compound 0.2 µM) was 0.975. The relative viability ([1]; first compound 0.6325 µM) was 0.986, the relative viability ([1]; first compound 2 µM) was 0.76 and the relative viability ([2]; first compound 0.02 µM) was 1.13. The relative viability ([2]; first compound 0.06325 µM) was 1.18, the relative viability ([2]; first compound 0.2 µM) was 1.17 and the relative viability ([2]; first compound 0.6325 µM) was 1.06. It also gave a relative viability ([2]; first compound 2 µM) of 0.803, a relative viability ([3]; first compound 0.08 µM) of 1 and a relative viability ([3]; first compound 0.8 µM) of 1.06. The relative viability ([3]; first compound 2.53 µM) was 1.03, the relative viability ([3]; first compound 8 µM) was 1 and the relative viability ([4]; first compound 0.08 µM) was 0.222. For the same cell line, the relative viability ([4]; first compound 0.8 µM) was 0.224, the relative viability ([4]; first compound 2.53 µM) was 0.148 and the relative viability ([4]; first compound 8 µM) was 0.161.
BEN gave a relative viability ([1]; first compound 0.02 µM) of 0.953, a relative viability ([1]; first compound 0.06325 µM) of 0.94 and a relative viability ([1]; first compound 0.2 µM) of 1.05. The relative viability ([1]; first compound 0.6325 µM) was 0.941, the relative viability ([1]; first compound 2 µM) was 0.569 and the relative viability ([2]; first compound 0.02 µM) was 0.935. The relative viability ([2]; first compound 0.06325 µM) was 1.17, the relative viability ([2]; first compound 0.2 µM) was 1.23 and the relative viability ([2]; first compound 0.6325 µM) was 1.09. For the same cell line, the relative viability ([2]; first compound 2 µM) was 0.819, the relative viability ([3]; first compound 0.08 µM) was 0.957 and the relative viability ([3]; first compound 0.8 µM) was 1.01. For the same cell line, the relative viability ([3]; first compound 2.53 µM) was 0.896, the relative viability ([3]; first compound 8 µM) was 0.699 and the relative viability ([4]; first compound 0.08 µM) was 0.399. The relative viability ([4]; first compound 0.8 µM) was 0.313, the relative viability ([4]; first compound 2.53 µM) was 0.285 and the relative viability ([4]; first compound 8 µM) was 0.302.
SW 1573 gave a relative viability ([1]; first compound 0.02 µM) of 0.75, a relative viability ([1]; first compound 0.06325 µM) of 0.743 and a relative viability ([1]; first compound 0.2 µM) of 0.824. For the same cell line, the relative viability ([1]; first compound 0.6325 µM) was 0.756, the relative viability ([1]; first compound 2 µM) was 0.544 and the relative viability ([2]; first compound 0.02 µM) was 0.488. For the same cell line, the relative viability ([2]; first compound 0.06325 µM) was 0.508, the relative viability ([2]; first compound 0.2 µM) was 0.439 and the relative viability ([2]; first compound 0.6325 µM) was 0.459. For the same cell line, the relative viability ([2]; first compound 2 µM) was 0.36, the relative viability ([3]; first compound 0.08 µM) was 0.666 and the relative viability ([3]; first compound 0.8 µM) was 0.763. For the same cell line, the relative viability ([3]; first compound 2.53 µM) was 0.906, the relative viability ([3]; first compound 8 µM) was 0.581 and the relative viability ([4]; first compound 0.08 µM) was 0.457. The relative viability ([4]; first compound 0.8 µM) was 0.456, the relative viability ([4]; first compound 2.53 µM) was 0.457 and the relative viability ([4]; first compound 8 µM) was 0.295.
NCI-H1993 was tested, and the relative viability ([1]; first compound 0.02 µM) was 0.768, the relative viability ([1]; first compound 0.06325 µM) was 0.627 and the relative viability ([1]; first compound 0.2 µM) was 0.689. The relative viability ([1]; first compound 0.6325 µM) was 0.74, the relative viability ([1]; first compound 2 µM) was 0.667 and the relative viability ([2]; first compound 0.02 µM) was 0.949. It also gave a relative viability ([2]; first compound 0.06325 µM) of 1.07, a relative viability ([2]; first compound 0.2 µM) of 1.06 and a relative viability ([2]; first compound 0.6325 µM) of 0.958. It also gave a relative viability ([2]; first compound 2 µM) of 0.201, a relative viability ([3]; first compound 0.08 µM) of 0.631 and a relative viability ([3]; first compound 0.8 µM) of 0.684. The relative viability ([3]; first compound 2.53 µM) was 0.687, the relative viability ([3]; first compound 8 µM) was 0.594 and the relative viability ([4]; first compound 0.08 µM) was 0.584. It also gave a relative viability ([4]; first compound 0.8 µM) of 0.651, a relative viability ([4]; first compound 2.53 µM) of 0.55 and a relative viability ([4]; first compound 8 µM) of 0.528.
SK-LU-1 was tested, and the relative viability ([1]; first compound 0.02 µM) was 1.23, the relative viability ([1]; first compound 0.06325 µM) was 1.13 and the relative viability ([1]; first compound 0.2 µM) was 1.02. It also gave a relative viability ([1]; first compound 0.6325 µM) of 1.18, a relative viability ([1]; first compound 2 µM) of 0.574 and a relative viability ([2]; first compound 0.02 µM) of 0.429. It also gave a relative viability ([2]; first compound 0.06325 µM) of 0.432, a relative viability ([2]; first compound 0.2 µM) of 0.607 and a relative viability ([2]; first compound 0.6325 µM) of 0.478. For the same cell line, the relative viability ([2]; first compound 2 µM) was 0.355, the relative viability ([3]; first compound 0.08 µM) was 1.02 and the relative viability ([3]; first compound 0.8 µM) was 1.01. It also gave a relative viability ([3]; first compound 2.53 µM) of 0.816, a relative viability ([3]; first compound 8 µM) of 0.406 and a relative viability ([4]; first compound 0.08 µM) of 0.171. For the same cell line, the relative viability ([4]; first compound 0.8 µM) was 0.183, the relative viability ([4]; first compound 2.53 µM) was 0.169 and the relative viability ([4]; first compound 8 µM) was 0.116.
